Structures are written as SMILES.

For one test, the system named is Rattus norvegicus. Description: Inhibition of AII induced mean arterial blood pressure in rat assessed as vasoconstrictor at 1 mg/kg, po. The class given is functional.
The nature of test [1]: Inhibition of Lacticaseibacillus casei TS.
Another test deals with Thymidylate synthase (Homo sapiens, UniProt P04818). Description: Inhibition of human TS.
Test [2] in a line: Binding affinity to AT1 in rabbit aorta. The class given is tissue-based, Oryctolagus cuniculus.

Chain of Thymidylate synthase (P04818 whole entry): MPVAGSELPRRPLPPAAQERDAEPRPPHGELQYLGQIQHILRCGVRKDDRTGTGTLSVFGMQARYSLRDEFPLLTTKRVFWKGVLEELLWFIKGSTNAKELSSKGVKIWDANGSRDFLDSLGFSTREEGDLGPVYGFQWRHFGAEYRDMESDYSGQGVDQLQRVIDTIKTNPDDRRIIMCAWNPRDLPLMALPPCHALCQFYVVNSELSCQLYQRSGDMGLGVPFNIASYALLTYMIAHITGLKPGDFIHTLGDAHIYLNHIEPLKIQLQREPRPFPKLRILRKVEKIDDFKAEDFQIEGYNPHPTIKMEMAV

For `CCCCc1nc2ccc([C@H]3C[C@H]4CCCN4O3)cc2c(=O)n1Cc1ccc(-c2ccccc2-c2nnn[nH]2)cc1`, the Activity in the test with Rattus norvegicus worked out at 55 mmHg.

As to `CCCCc1nc2ccc([C@@]3(C(=O)N4CCCCC4)C[C@H]4CCCN4O3)cc2c(=O)n1Cc1ccc(-c2ccccc2-c2nnn[nH]2)cc1`, the Activity with Rattus norvegicus was 55 mmHg.

Consider `CCCCc1nc2ccc([C@]3(CC)C[C@H]4CCCN4O3)cc2c(=O)n1Cc1ccc(-c2ccccc2-c2nn[nH]n2)cc1`, for which the Activity with Rattus norvegicus is reported as 55 mmHg.

Regarding `CCCCc1nc2ccc([C@@]3(C)C[C@H]4CCCN4O3)cc2c(=O)n1Cc1ccc(-c2ccccc2-c2nn[nH]n2)cc1`, the Activity in the test on Rattus norvegicus was 55 mmHg.

Consider `CCCCc1nc2ccc([C@]3(C)C[C@H]4CCCN4O3)cc2c(=O)n1Cc1ccc(-c2ccccc2-c2nn[nH]n2)cc1`, for which the Activity in the test on Rattus norvegicus worked out at 55 mmHg.

In general, IC50 refers to the point on the concentration scale where inhibition reaches its midpoint. Higher therefore signals a need for much substance. Turning to `COC(=O)[C@H](Cc1ccccc1)NC(=O)c1ccc(Sc2c(C)ccc3nc(N)[nH]c(=O)c23)cc1`, the IC50 is 200 nM in test [1] and 3 nM against Thymidylate synthase.

With `Cc1ccc2nc(N)[nH]c(=O)c2c1Sc1ccc(C(=O)N[C@@H](Cc2ccccc2)C(=O)O)cc1`, the IC50 in test [1] is 200 nM; at Thymidylate synthase, 3 nM.

In the case of `Cc1ccc2nc(N)[nH]c(=O)c2c1Sc1ccc(C(=O)N[C@H](CO)c2ccccc2)cc1`, the IC50 worked out at 200 nM in test [1] and 3 nM against Thymidylate synthase.

Consider `COC(=O)c1cccc([C@H](NC(=O)c2ccc(Sc3c(C)ccc4nc(N)nc(O)c34)cc2)C(=O)OC)c1`, for which the IC50 is 200 nM in test [1] and 3 nM against Thymidylate synthase.

Turning to `CCc1nc2ccc(C)cc2c(=O)n1Cc1ccc(-c2ccccc2-c2nn[nH]n2)cc1`, in test [2], the IC50 was at least 1.3 nM.

Consider `CCCCc1nc2ccc(Cl)cc2c(=O)n1Cc1ccc(-c2ccccc2-c2nn[nH]n2)cc1`, for which the IC50 in test [2] was at least 1.3 nM.

In turn, `CCCCC(=O)Nc1ccc2nc(CCCC)n(Cc3ccc(-c4ccccc4-c4nn[nH]n4)cc3)c(=O)c2c1` yielded an IC50 in test [2] of at least 1.3 nM.

Regarding `COC(=O)c1cccc(NC(=O)c2ccc(Sc3c(C)ccc4nc(N)[nH]c(=O)c34)cc2)c1`, the IC50 in test [1] came to 200 nM; at Thymidylate synthase it was 3 nM.

Regarding `CCCCc1nc2cc(C)ccc2c(=O)n1Cc1ccc(-c2ccccc2C(=O)O)cc1`, in test [2], the IC50 came to 370 nM.

On to `Cc1ccc2nc(N)nc(O)c2c1Sc1ccc(C(=O)N[C@H](C(=O)O)c2cccc(O)c2)cc1`, for which the IC50 in test [1] stood at 200 nM; against Thymidylate synthase, 3 nM.

In test [2], `CCCCc1nc2cccc(C)c2c(=O)n1Cc1ccc(-c2ccccc2C(=O)O)cc1` displayed an IC50 of 370 nM.

For `CCCCc1nc2ccc(I)cc2c(=O)n1Cc1ccc(-c2ccccc2-c2nn[nH]n2)cc1`, the IC50 in test [2] was at least 1.3 nM.

Turning to `Cc1ccc2nc(N)nc(O)c2c1Sc1ccc(C(=O)N[C@H](C(=O)O)c2cccc(C(=O)O)c2)cc1`, the IC50 in test [1] stood at 200 nM; on Thymidylate synthase, 3 nM.

Consider `Cc1ccc2nc(N)[nH]c(=O)c2c1Sc1ccc(C(=O)N[C@H](C)c2ccccc2)cc1`, for which the IC50 in test [1] amounted to 200 nM; against Thymidylate synthase, 3 nM.

On to `CCCCc1nc2ccc([C@H]3C[C@H]4CC[C@H](C)N4O3)cc2c(=O)n1Cc1ccc(-c2ccccc2-c2nnn[nH]2)cc1`, for which the Activity in the test on Rattus norvegicus was determined as 55 mmHg.

As for `CCCCc1nc2ccc(C(F)(F)F)cc2c(=O)n1Cc1ccc(-c2ccccc2-c2nn[nH]n2)cc1`, the IC50 in test [2] was at least 1.3 nM.

For the molecule `CCCCc1nc2ccc([C@H]3C[C@@]4(C)CCCCN4O3)cc2c(=O)n1Cc1ccc(-c2ccccc2-c2nnn[nH]2)cc1`, the Activity in the test with Rattus norvegicus came to 55 mmHg.

For the molecule `CCCCc1nc2ccc([C@]3(C)C[C@H]4CC[C@H](C)N4O3)cc2c(=O)n1Cc1ccc(-c2ccccc2-c2nnn[nH]2)cc1`, the Activity in the test on Rattus norvegicus is given as 55 mmHg.

In turn, `CCCCCc1nc2ccc(C)cc2c(=O)n1Cc1ccc(-c2ccccc2-c2nn[nH]n2)cc1` had an IC50 in test [2] of at least 1.3 nM.

In the case of `COC(=O)[C@H](NC(=O)c1ccc(Sc2c(C)ccc3nc(N)[nH]c(=O)c23)cc1)c1ccccc1`, the IC50 stood at 200 nM in test [1] and 3 nM on Thymidylate synthase.

On to `COC(=O)[C@H](Cc1ccc(N)cc1)NC(=O)c1ccc(Sc2c(C)ccc3nc(N)[nH]c(=O)c23)cc1`, for which the values for the IC50 (in test [1]; at Thymidylate synthase) were 200 nM and 3 nM, respectively.

As to `COC(=O)[C@H](Cc1c[nH]c2ccccc12)NC(=O)c1ccc(Sc2c(C)ccc3nc(N)[nH]c(=O)c23)cc1`, the IC50 stood at 200 nM in test [1] and 3 nM against Thymidylate synthase.

For the molecule `CCCCc1nc2ccc(NC(C)=O)cc2c(=O)n1Cc1ccc(-c2ccccc2-c2nn[nH]n2)cc1`, the IC50 in test [2] was at least 1.3 nM.

`CS(C)(=O)=O` [DIMETHYL SULFONE] had an IC50 in test [2] of 2.6 nM.

On to `CCCCc1nc2ccc(F)cc2c(=O)n1Cc1ccc(-c2ccccc2-c2nn[nH]n2)cc1`, for which, in test [2], the IC50 is at least 1.3 nM.

For `CCCCc1nc2ccc([C@@]3(C)C[C@H]4CCCCN4O3)cc2c(=O)n1Cc1ccc(-c2ccccc2-c2nn[nH]n2)cc1`, the Activity in the test with Rattus norvegicus was found to be 55 mmHg.

Turning to `Cc1ccc2nc(N)nc(O)c2c1Sc1ccc(C(=O)N[C@H](C(=O)O)c2ccccc2)cc1`, the results for the IC50 (in test [1]; against Thymidylate synthase) were 200 nM and 3 nM, respectively.

For `CCCCc1nc2ccc(C)cc2c(=O)n1Cc1ccc(-c2ccccc2-c2nn[nH]n2)cc1`, in test [2], the IC50 was at least 1.3 nM.

For the molecule `COC(=O)[C@@H](NC(=O)c1ccc(Sc2c(C)ccc3nc(N)nc(O)c23)cc1)c1ccccc1`, the IC50 in test [1] stood at 200 nM; against Thymidylate synthase, 3 nM.

On to `COC(=O)[C@@H](NC(=O)c1ccc(Sc2c(C)ccc3nc(N)[nH]c(=O)c23)s1)c1ccccc1`, for which the IC50 in test [1] came out at 200 nM; against Thymidylate synthase it was 3 nM.

Regarding `COC(=O)[C@H](Cc1ccc(O)c(O)c1)NC(=O)c1ccc(Sc2c(C)ccc3nc(N)[nH]c(=O)c23)cc1`, the IC50 in test [1] was determined as 200 nM; against Thymidylate synthase it was 3 nM.

On to `CCCCc1nc2cccc(F)c2c(=O)n1Cc1ccc(-c2ccccc2-c2nn[nH]n2)cc1`, for which, in test [2], the IC50 is at least 1.3 nM.

As for `CCCCc1nc2cc(OC)c(OC)cc2c(=O)n1Cc1ccc(-c2ccccc2-c2nn[nH]n2)cc1`, the IC50 in test [2] is at least 1.3 nM.

Take `COC(=O)[C@H](Cc1ccc(O)cc1)NC(=O)c1ccc(Sc2c(C)ccc3nc(N)[nH]c(=O)c23)cc1`: the figures for the IC50 (in test [1]; at Thymidylate synthase) were 200 nM and 3 nM, respectively.

Turning to `CCCCc1nc2ccc([N+](=O)[O-])cc2c(=O)n1Cc1ccc(-c2ccccc2-c2nn[nH]n2)cc1`, in test [2], the IC50 was at least 1.3 nM.

As for `COC(=O)[C@@H](NC(=O)c1ccc(Sc2c(C)ccc3nc(N)nc(O)c23)cc1)c1cccc(O)c1`, the results for the IC50 (in test [1]; against Thymidylate synthase) were 200 nM and 3 nM, respectively.

With `CCCCc1nc2ccc(N)cc2c(=O)n1Cc1ccc(-c2ccccc2-c2nn[nH]n2)cc1`, the IC50 in test [2] was at least 1.3 nM.

As to `Cc1ccc2nc(N)[nH]c(=O)c2c1Sc1ccc(C(=O)Nc2cccc(C(=O)O)c2)cc1`, the concentration for half-maximal inhibition (IC50) stood at 200 nM in test [1] and 3 nM against Thymidylate synthase.

Regarding `CCCc1nc2ccc(C)cc2c(=O)n1Cc1ccc(-c2ccccc2-c2nn[nH]n2)cc1`, the IC50 in test [2] is at least 1.3 nM.

As for `CCCCc1nc2ccc(C)cc2c(=O)n1Cc1ccc(-c2ccccc2C(=O)O)cc1`, the IC50 in test [2] was 10 nM.

In turn, `CCCCc1nc2ccccc2c(=O)n1Cc1ccc(-c2ccccc2-c2nn[nH]n2)cc1` yielded an IC50 in test [2] of at least 1.3 nM.

Consider `CCCCc1nc2cc3ccccc3cc2c(=O)n1Cc1ccc(-c2ccccc2C(=O)O)cc1`, for which the IC50 in test [2] is 10 nM.

`CCCCc1nc2ccc(OC)cc2c(=O)n1Cc1ccc(-c2ccccc2-c2nn[nH]n2)cc1` registered an IC50 in test [2] of at least 1.3 nM.

Source of the values: ChEMBL document CHEMBL5260833, “An overview of quinazolines: Pharmacological significance and recent developments” (Eur J Med Chem, 2018).
